Literature values in EP0700285B1, “A DRUG DELIVERY COMPOSITION FOR ALPHA-ADRENO RECEPTOR BLOCKING AGENTS” (SYNTHELABO, priority 1993, dated 1994).

For COc1cc2nc(N(C)CCCNC(=O)C3CCCO3)nc(N)c2cc1OC (centres unmarked) [alfuzosin], the “plasma elimination half life (mean)” value (after intravenous administration) is listed as 4.8 h, the mean half life (after oral administration) is listed as 4.8 h and the mean oral bioavailability (immediate release dosage form) is listed as 64%. For the same molecule, the “parent compound excreted unchanged in the urine” value (in vivo) was 11% and the volume of distribution (in vivo) was 2.5 L/kg.
